PubChem BioAssay (NCI)
Values joined by “and” are separate entries in the source; they are usually repeats but may differ in a detail not shown here. Identical values can stand only once.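 Growth conditions: 96-well plates. Treatment: test compound, 48 hours, 5 concentrations. Analysis: linear interpolation between bracketing concentrations; unreached endpoints set to highest concentration. The concentration for 50% growth inhibition is given as GI50. TGI marks complete inhibition of growth.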

Tests used:
Experiment in all cases: NCI tumour cell line growth inhibition, 48 h
SF-295 CNS = test system: SF-295 CNS
TK-10 renal = test system: TK-10 renal
SK-OV-3 ovarian = test system: SK-OV-3 ovarian
SN12C renal = test system: SN12C renal
UO-31 renal = test system: UO-31 renal
NCI-H226 lung = test system: NCI-H226 lung
SW-620 colon = test system: SW-620 colon
HT29 colon = test system: HT29 colon
SK-MEL-28 melanoma = test system: SK-MEL-28 melanoma
NCI-H23 lung = test system: NCI-H23 lung

Row | Compound | GI50 (SF-295 CNS) | TGI (SF-295 CNS) | GI50 (TK-10 renal) | TGI (TK-10 renal) | GI50 (SK-OV-3 ovarian) | TGI (SK-OV-3 ovarian) | GI50 (SN12C renal) | TGI (SN12C renal) | GI50 (UO-31 renal) | TGI (UO-31 renal) | GI50 (NCI-H226 lung) | TGI (NCI-H226 lung) | GI50 (SW-620 colon) | TGI (SW-620 colon) | TGI (HT29 colon) | TGI (SK-MEL-28 melanoma) | GI50 (HT29 colon) | TGI (NCI-H23 lung) | GI50 (NCI-H23 lung) | GI50 (SK-MEL-28 melanoma)
1 | O=C(Nc1ccc(Cl)cc1Cl)c1ccc(NC2=C(Cl)C(=O)N(Cc3ccccc3)C2=O)cc1 | 19.5 µM | 38.1 µM | 25.5 µM | 81.9 µM | 30.3 µM | 78.8 µM | 20.3 µM | 42.8 µM | 3.56 µM | > 100 µM | 20.5 µM | 45.8 µM | 34 µM | > 100 µM | – | – | – | – | – | –
2 | COc1cccc([C@H]2CC(=O)c3cc4c(cc3N2)OCO4)c1 | 0.0958 µM | > 100 µM | – | > 100 µM | 0.556 µM | > 100 µM | 0.161 µM | > 100 µM | 0.223 µM | > 100 µM | 0.226 µM | > 100 µM | 0.0676 µM | > 100 µM | 0.425 µM | > 100 µM | – | – | – | –
3 | CC1[C@@H]2[C@@H](C=C3C4CCC5Cc6nc7c(nc6C[C@@]5(C)C4C[C@H](O)[C@]32CO)CC2CCC3C4=C[C@H]5O[C@@]6(O[C@@](C)(CO)C[C@@H]6O)C(C)[C@@]5(O)[C@]4(C)[C@@H](O)CC3[C@]2(C)C7)O[C@]12CCC(C)(C)O2 (some centres undefined) | < 0.000365 µM | – | – | – | < 0.000365 µM | 0.0991 µM and 0.0224 µM | > 3.65 µM | > 3.65 µM | 0.117 µM | 0.158 µM and 0.286 µM | 0.00626 µM | 0.543 µM and > 3.65 µM | 0.0079 µM | 0.175 µM and 0.0892 µM | 0.44 µM and 0.414 µM | 0.238 µM | 0.00302 µM | 0.574 µM | – | –
4 | CC1=CCC[C@@]2(C)C(CC[C@@H]2C(C)/C=C/C(C)C)c2ccc(cc2C(=O)O)C[C@@H](O)CC1 (some centres undefined) | – | 21.7 µM | – | 25.1 µM | – | 32.3 µM | – | 30.4 µM | – | 29.2 µM | – | 32.7 µM | – | 32.2 µM | 17.6 µM | 28.4 µM | – | – | – | –
5 | O=P([O-])(O)OP(=O)([O-])O.[NH-][C@H]1CCCC[C@@H]1[NH-].[OH-].[OH-].[Pt+4] | 19.8 µM | 44.1 µM | – | – | 19.9 µM | 38.6 µM | 29.2 µM | 87.9 µM | 19.1 µM | 44 µM | 23.2 µM | 55 µM | 55.8 µM | > 100 µM | > 100 µM | > 100 µM | 59.6 µM | 46.1 µM | 20.8 µM | 31.5 µM
6 | COc1cc(C(=O)OCCCCCCCCCCC[P+](c2ccccc2)(c2ccccc2)c2ccccc2)ccc1O | – | – | 1.65 µM | 4.15 µM | 1.35 µM | 5.5 µM | – | – | 1.69 µM | 3.17 µM | – | – | – | – | – | – | – | – | – | –
7 | O=C(c1ccc2ccccc2c1O)N1CCCCC1 | – | > 100 µM | – | > 100 µM | – | > 100 µM | – | – | – | > 100 µM | – | > 100 µM | – | > 100 µM | > 100 µM | > 100 µM | – | 90 µM | – | –
8 | O=C(O)CN(c1ccccc1)S(=O)(=O)c1ccc(NC(=O)c2ccccc2)cc1 | – | – | – | > 100 µM | – | > 100 µM | – | > 100 µM | – | > 100 µM | – | – | – | > 100 µM | – | > 100 µM | – | > 100 µM | – | –
9 | CCCCCCCCCCCOC(=S)NC(C)C | – | 40.7 µM | – | 86.1 µM | – | 49.6 µM | – | 30.1 µM | – | 32.2 µM | – | – | – | 30.2 µM | 34.6 µM | 56.6 µM | – | 38.1 µM | – | –
10 | N=C(c1ccccc1)N(c1ccccc1)c1ccccc1 | – | > 100 µM | – | > 100 µM | – | – | – | > 100 µM | – | > 100 µM | – | > 100 µM | – | > 100 µM | > 100 µM | > 100 µM | – | > 100 µM | – | –
11 | CCSc1nnc2c(-c3ccccc3)n[nH]c2n1 | – | > 100 µM | – | > 100 µM | – | > 100 µM | – | – | – | > 100 µM | – | > 100 µM | – | > 100 µM | > 100 µM | > 100 µM | – | > 100 µM | – | –
12 | NNC(=S)N/N=C(\CCCC(=O)NCCc1ccccc1)CC(=O)c1ccccc1 | – | > 100 µM | – | > 100 µM | – | – | – | > 100 µM | – | > 100 µM | – | – | – | > 100 µM | > 100 µM | > 100 µM | – | > 100 µM | – | –
13 | CC1CC2C3CC(F)C4=CC(=O)C=CC4(C)C3(F)C(O)CC2(C)C1(O)C(=O)COC(=O)C(C)(C)C (centres undefined) | – | > 100 µM | – | > 100 µM | – | – | – | – | – | > 100 µM | – | > 100 µM | – | > 100 µM | > 100 µM | > 100 µM | – | > 100 µM | – | –
14 | CC1=C([Se]CC(OC(=O)[C@@H](CSSC(C)(C)C)NC(=O)OC(C)(C)C)C(=O)NC(C)(C)C)C(=O)c2ccccc2C1=O (some centres undefined) | 1.22 µM | 3.19 µM | 1.6 µM | 2.95 µM | 1.36 µM | 2.64 µM | 1.37 µM | 2.74 µM | – | – | – | – | 1.43 µM | 2.73 µM | 6.3 µM | 2.98 µM | 2.3 µM | 4.61 µM | 1.82 µM | 1.62 µM
15 | O=C(O)c1ccccc1Cc1ccco1 | – | > 100 µM | – | > 100 µM | – | > 100 µM | – | > 100 µM | – | > 100 µM | – | > 100 µM | – | > 100 µM | > 100 µM | – | – | > 100 µM | – | –
16 | NS(=O)(=O)c1ccc(NC(=O)c2ccc(NC3=C(Cl)C(=O)N(Cc4ccccc4)C3=O)cc2)cc1 | 3.03 µM | 17.8 µM | > 100 µM | > 100 µM | 41 µM | > 100 µM | – | – | 79.3 µM | > 100 µM | 2.12 µM | 5.91 µM | 2.69 µM | 7.78 µM | 17 µM | > 100 µM | 5.92 µM | 14.3 µM | 3.42 µM | 4.16 µM
17 | COc1ccc(/C(=N/NC(N)=O)C2(O)C(=O)Nc3ccc([N+](=O)[O-])cc32)cc1 (centres undefined) | – | – | – | – | – | > 100 µM | – | > 10 µM | – | 34.8 µM | – | > 100 µM | – | 50.8 µM | 42.2 µM | 36.9 µM | – | 31.6 µM | – | –
18 | Cc1ccc(NCCCN2CCN(CCCNc3ccc(C)c4sc5ccccc5c(=O)c34)CC2)c2c(=O)c3ccccc3sc12 | – | > 100 µM | – | – | – | > 100 µM | – | > 100 µM | – | > 100 µM | – | > 100 µM | – | > 100 µM | > 100 µM | > 100 µM | – | > 100 µM | – | –
19 | c1ccc(SC2(Sc3ccccc3)CCCC2)cc1 | – | > 100 µM | – | > 100 µM | – | > 100 µM | – | > 100 µM | – | > 100 µM | – | – | – | > 100 µM | – | > 100 µM | – | > 100 µM | – | –
